Values quoted from earlier work as cited in patent US9211305B2, “Pharmaceutical compositions with glycosaminoglycans and use thereof in the treatment of chronic ulcers” (LABORATORIOS FARMACEUTICOS ROVI S.A., priority 2008, dated 2015).

Tests used:
[1] = in vivo; cited from earlier work
[2] = system: factor Xa; settings: commercial products; cited from earlier work
[3] = Ph. Eur. 6th Edition; cited from earlier work

Nadroparin
Plasma Half-Life [1]: 3.7 h | Plasma Half-Life Range [1]: 3.7 h

Tinzaparin
anti-factor Xa activity [2]: 70-120 IU/mg | Plasma Half-Life [1]: 3.0 h | Plasma Half-Life Range [1]: 3.0 h

Heparin Sodium
Anti-coagulating activity [3]: ≥ 150 IU/mg

Dalteparin
anti-factor Xa activity [2]: 110-210 IU/mg | Plasma Half-Life [1]: 2.5 h | Plasma Half-Life Range [1]: 2.3 to 2.8 h

Enoxaparin
anti-factor Xa activity [2]: 90-125 IU/mg | Plasma Half-Life [1]: 4.2 h | Plasma Half-Life Range [1]: 4.0 to 4.4 h
